Literature values in patent US5164490A, “Pneumocystis carinii dihydrofolate reductase gene and methods for its use” (The Regents of the University of California, priority 1989, dated 1992).

System: P. carinii
Details: trimethoprim alone

COc1cc(Cc2cnc(N)nc2N)cc(OC)c1OC [trimethoprim]
efficacy in the rat model of P. carinii infection: lack of efficacy
